Experiments:
HEK-293T = assay: Incucyte cell viability with HEK293T; assay type: toxicity, cell-based; settings: human, 10 µM, compound concentration 10 uM
Fibroblast = assay: Incucyte cell viability with human fibroblast; assay type: toxicity, cell-based; settings: 10 µM, compound concentration 10 uM
[1] = 0 h, replicate number 1, timepoint 0 hours
[2] = 6 h, replicate number 1, timepoint 6 hours
[3] = 12 h, replicate number 1, timepoint 12 hours
[4] = 18 h, replicate number 1, timepoint 18 hours
[5] = 24 h, replicate number 1, timepoint 24 hours
[6] = 0 h, replicate number 2, timepoint 0 hours
[7] = 18 h, replicate number 2, timepoint 18 hours
[8] = 6 h, replicate number 2, timepoint 6 hours
[9] = 12 h, replicate number 2, timepoint 12 hours
[10] = 24 h, replicate number 2, timepoint 24 hours
Note: filed as whole numbers so only -1 and 0 and 1 occur.

SMILES	Growth Rate (HEK-293T; [1])	Growth Rate (HEK-293T; [2])	Growth Rate (HEK-293T; [3])	Growth Rate (HEK-293T; [4])	Growth Rate (HEK-293T; [5])	Growth Rate (Fibroblast; [1])	Growth Rate (Fibroblast; [2])	Growth Rate (Fibroblast; [3])	Growth Rate (Fibroblast; [4])	Growth Rate (Fibroblast; [5])	Growth Rate (HEK-293T; [6])	Growth Rate (HEK-293T; [7])	Growth Rate (Fibroblast; [8])	Growth Rate (Fibroblast; [9])	Growth Rate (Fibroblast; [7])	Growth Rate (Fibroblast; [10])	Growth Rate (Fibroblast; [6])	Growth Rate (HEK-293T; [8])	Growth Rate (HEK-293T; [9])	Growth Rate (HEK-293T; [10])
O=C(Nc1ccc(-n2nc(-c3cccnc3)cc2C(F)(F)F)cn1)c1ccc(-c2ccccc2)c(F)c1 [BI 2049]	1	0	0	0	0	0	0	0	0	0										
Cn1nc(C(=O)NCc2ccc(C(=O)O)cc2)cc1-c1ccc2[nH]ccc2c1 [BI 4395]	0		0	0	0	0		1	1	1	1	1	0							
COCC(=O)NC/C=C/c1ccc2ncnc(Nc3ccc(Oc4ccc(C)nc4)c(C)c3)c2c1 [CP-724714]		0	0	0	0	0		1	1	1			1	0	0	0				
COc1cc2ncnc(Nc3ccc(F)c(Cl)c3)c2cc1NC(=O)/C=C/CN1CCCCC1 [DACOMITINIB ANHYDROUS]		0	0	0	0		0	0	0	0							1			
C=C1/C(=C\C=C2/CCC[C@]3(C)[C@@H]([C@H](C)/C=C/[C@H](C)C(C)C)CC[C@@H]23)C[C@@H](O)C[C@@H]1O [DOXERCALCIFEROL]	0	0	0	0	0	0		1	1	0			0	0	0					
CCCn1c(=O)c2[nH]c(-c3cnn(Cc4cccc(C(F)(F)F)c4)c3)nc2n(CC)c1=O [GS 6201]	1	0	0	0	0	0			1	1	0							1	1	
CCn1cc(-c2ccnc3[nH]c(-c4cccc(CN(C)C)c4)cc23)c(-c2ccc(NC(=O)N(C)C)cc2)n1 [GSK-1070916]		0	0	0	0	0	1	0	0	0	1			1						
CCN1CCN(c2ccc(Nc3cc(N(C)C(=O)Nc4c(Cl)c(OC)cc(OC)c4Cl)ncn3)cc2)CC1 [INFIGRATINIB]		0	0	0	0	0	1	1	0	0										
CN1CCC(=C2c3ccccc3CC(=O)c3sccc32)CC1.O=C(O)/C=C/C(=O)O [KETOTIFEN FUMARATE]		0	0	0	0	0	0	0	0	0	1									
COc1ccc(-c2ccc3c(N4CCOCC4)nc(N4C[C@@H](C)O[C@@H](C)C4)nc3n2)cc1CO [Ku-0063794]		0	0	0	0	1		1	1	0			1	0	0					
CN(C)C(=O)C(CCN1CCC(O)(c2ccc(Cl)cc2)CC1)(c1ccccc1)c1ccccc1.Cl [LOPERAMIDE HYDROCHLORIDE]		0	0	0	0		0	0	0	0	1									
C[C@H]1Oc2cc(cnc2N)-c2c(nn(C)c2C#N)CN(C)C(=O)c2ccc(F)cc21 [LORLATINIB]	0	0	0	0	0		0	0	0	0							0			
O=C1NC(=O)C(c2cnc3ccccn23)=C1c1cn2c3c(cc(F)cc13)CN(C(=O)N1CCCCC1)CC2 [LY-2090314]	0	0		1	1		0	0	0	0							1		0	0
CCOc1cc2ncc(C#N)c(Nc3ccc(OCc4ccccn4)c(Cl)c3)c2cc1NC(=O)/C=C/CN(C)C [NERATINIB]	0	0	0	0	0	0		1	0	0						1				
Cc1cn(-c2cc(NC(=O)c3ccc(C)c(Nc4nccc(-c5cccnc5)n4)c3)cc(C(F)(F)F)c2)cn1 [NILOTINIB]	0	0	1	1	0	0	0	0	0	0									0	1
COc1cccc2cc(-c3nc([C@H]4CC[C@H](C(=O)O)CC4)n4ncnc(N)c34)[nH]c12 [OSI-027]	1	0	0	0	0	0		0	0	0				1						
CCCS(=O)(=O)Nc1ccc(F)c(C(=O)c2c[nH]c3ncc(Cl)cc23)c1F [PLX-4720]	0	0	0	0	0	1	0	0	0	0	1						0			
CN1CCN(C(=O)C(C)(C)c2ccc(C(=O)Nc3cn4cc(-c5cc(C(C)(C)C)cc(C(C)(C)C)c5)ccc4n3)cc2)CC1 [T3-CLK-N]		0	0	0	0				1	1	1						0			
O=C(Cc1ccc(-c2ccc(OCCN3CCOCC3)cc2)cn1)NCc1ccccc1 [TIRBANIBULIN]		0	0	0	0		0	0	0	0										
Cn1nc(C(F)(F)F)cc1-c1cnc(N2CCc3cc(S(=O)(=O)Nc4c(F)cc(Cl)cc4F)cc(N4CCCC4=O)c32)nc1 [TP-020]	0	0	0	0	0	0	1	0	1	0	1			1	0			1		

Reference: ChEMBL document CHEMBL4689842, “EUbOPEN Chemogenomics Library wave 1” (2021)
